Reference: patent US20250101436A1, “APTAMERS AND SMALL MOLECULE LIGANDS” (MeiraGTx UK II Limited, priority 2021, published 2025)

tested on: luciferase gene expression in HEK 293 cells in response to Comp. 004; test: Screen of riboswitch constructs with 12C6-1 variant aptamers (libraries N1-N5) against Comp. 004, luciferase in HEK 293 cells; type: cell-based, human; conditions: library N5 variant aptamers (L5, X16-X21 randomized) of 12C6-1 in riboswitch constructs; in response to Comp. 004 treatment; HEK 293 cells
How it was run: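 Riboswitch constructs carrying 12C6-1 aptamer variants, randomized in J2-4, J2-3/J3-3a/J3a-2/P3, L3a, J4-5/J5-4/P4 or L5 regions (libraries N1-N5), cloned into an intron-exon-intron cassette driving luciferase. Screened in HEK 293 cells with 25 µM Comp. 004; read-out is fold induction of gene expression versus parent Luci-12C6-1.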

First: N5_7A10 (CTGGGGAGTCCT; chemistry not given here)
Second: N5_7A11 (CTGGGGAGTCCT; chemistry not given here)
The “Fold (induction of luciferase gene expression)” value (shortened to “Fold”) of the first is higher: 1108.5 fold for the first, 941.2 fold for the second.

First: N5_7B1 (CTGGGGAGTCCT; chemistry not given here)
Second: N5_7B3 (CTGGGGAGTCCT; chemistry not given here)
The “Fold” value of the first is higher: 2062.3 fold for the first, 756.3 fold for the second.

Going from “N5_7B5 (CTGGGGAGTCCT; chemistry not given here)” to “N5_7B6 (CTGGGGAGTCCT; chemistry not given here)”, the “Fold” value rises from 779.9 fold to 875.4 fold.

Compared with “N5_7B7 (CTGGGGAGTCCT; chemistry not given here)”, “N5_7B8 (CTGGGGAGTCCT; chemistry not given here)” is lower in “Fold” value: 1046.3 fold for the first, 693.7 fold for the second.

Compared with “N5_7B10 (CTGGGGAGTCCT; chemistry not given here)”, “N5_7B12 (CTGGGGAGTCCT; chemistry not given here)” is lower in “Fold” value: 1361.5 fold for the first, 908.4 fold for the second.

Going from “N5_7C1 (CTGGGGAGTCCT; chemistry not given here)” to “N5_7C2 (DNA CTGGGGAGTCCT; chemistry not given here)”, the “Fold” value rises from 87.5 fold to 627.0 fold.

Compared with “N5_7C3 (DNA CTGGGGAGTCCT; chemistry not given here)”, “N5_7C4 (DNA CTGGGGAGTCCT; chemistry not given here)” is higher in “Fold” value: 1258.4 fold for the first, 1363.2 fold for the second.

Going from “N5_7C7 (DNA CTGGGGAGTCCT; chemistry not given here)” to “N5_7C8 (DNA CTGGGGAGTCCT; chemistry not given here)”, the “Fold” value rises from 489.1 fold to 1313.8 fold.

Compared with “N5_7C10 (CTGGGGAGTCCT; chemistry not given here)”, “N5_7C11 (CTGGGGAGTCCT; chemistry not given here)” is lower in “Fold” value: 1090.7 fold for the first, 459.9 fold for the second.

First: N5_7C12 (CTGGGGAGTCCT; chemistry not given here)
Second: N5_7D1 (DNA CTGGGGAGTCCT; chemistry not given here)
The “Fold” value of the first is lower: 628.9 fold for the first, 909.3 fold for the second.

First: N5_7D2 (DNA CTGGGGAGTCCT; chemistry not given here)
Second: N5_7D3 (DNA CTGGGGAGTCCT; chemistry not given here)
The “Fold” value of the first is higher: 1114.3 fold for the first, 1075.7 fold for the second.

Going from “N5_7D4 (DNA CTGGGGAGTCCT; chemistry not given here)” to “N5_7D5 (DNA CTGGGGAGTCCT; chemistry not given here)”, the “Fold” value rises from 1144.9 fold to 1182.3 fold.

Going from “N5_7D6 (DNA CTGGGGAGTCCT; chemistry not given here)” to “N5_7D7 (DNA CTGGGGAGTCCT; chemistry not given here)”, the “Fold” value falls from 1210.5 fold to 105.5 fold.

First: N5_7D11 (DNA CTGGGGAGTCCT; chemistry not given here)
Second: N5_7E1 (DNA CTGGGGAGTCCT; chemistry not given here)
The “Fold” value of the first is lower: 759.2 fold for the first, 1733.0 fold for the second.

Compared with “N5_7E2 (DNA CTGGGGAGTCCT; chemistry not given here)”, “N5_7E5 (DNA CTGGGGAGTCCT; chemistry not given here)” is lower in “Fold” value: 1234.5 fold for the first, 867.4 fold for the second.

First: N5_7E6 (DNA CTGGGGAGTCCT; chemistry not given here)
Second: N5_7E7 (DNA CTGGGGAGTCCT; chemistry not given here)
The “Fold” value of the first is higher: 1153.2 fold for the first, 870.2 fold for the second.

First: N5_7E8 (DNA CTGGGGAGTCCT; chemistry not given here)
Second: N5_7E9 (DNA CTGGGGAGTCCT; chemistry not given here)
The “Fold” value of the first is lower: 879.9 fold for the first, 955.3 fold for the second.

First: N5_7E11 (DNA CTGGGGAGTCCT; chemistry not given here)
Second: N5_7E12 (DNA CTGGGGAGTCCT; chemistry not given here)
The “Fold” value of the first is lower: 732.1 fold for the first, 933.3 fold for the second.

First: N5_7F1 (DNA CTGGGGAGTCCT; chemistry not given here)
Second: N5_7F2 (DNA CTGGGGAGTCCT; chemistry not given here)
The “Fold” value of the first is higher: 1744.2 fold for the first, 937.4 fold for the second.

First: N5_7F3 (DNA CTGGGGAGTCCT; chemistry not given here)
Second: N5_7F4 (DNA CTGGGGAGTCCT; chemistry not given here)
The “Fold” value of the first is lower: 1139.0 fold for the first, 1239.0 fold for the second.

First: N5_7F5 (DNA CTGGGGAGTCCT; chemistry not given here)
Second: N5_7F6 (DNA CTGGGGAGTCCT; chemistry not given here)
The “Fold” value of the first is higher: 1115.4 fold for the first, 898.5 fold for the second.

First: N5_7F8 (DNA CTGGGGAGTCCT; chemistry not given here)
Second: N5_7F9 (DNA CTGGGGAGTCCT; chemistry not given here)
The “Fold” value of the first is higher: 1279.7 fold for the first, 642.4 fold for the second.

First: N5_7F10 (DNA CTGGGGAGTCCT; chemistry not given here)
Second: N5_7F11 (DNA CTGGGGAGTCCT; chemistry not given here)
The “Fold” value of the first is higher: 572.7 fold for the first, 339.7 fold for the second.

First: N5_7G1 (DNA CTGGGGAGTCCT; chemistry not given here)
Second: N5_7G3 (DNA CTGGGGAGTCCT; chemistry not given here)
The “Fold” value of the first is higher: 935.4 fold for the first, 799.3 fold for the second.

Going from “N5_7G6 (DNA CTGGGGAGTCCT; chemistry not given here)” to “N5_7G7 (DNA CTGGGGAGTCCT; chemistry not given here)”, the “Fold” value rises from 902.8 fold to 952.9 fold.

First: N5_7G8 (DNA CTGGGGAGTCCT; chemistry not given here)
Second: N5_7G9 (DNA CTGGGGAGTCCT; chemistry not given here)
The “Fold” value of the first is lower: 775.6 fold for the first, 841.7 fold for the second.

“N5_7G10 (DNA CTGGGGAGTCCT; chemistry not given here)” was tested, and the “Fold” value was 530.8 fold.
